Reference: US20070275935A1, “Estratriene Derivatives” (priority 2003, published 2007)

Key:
[1] = system: Human airway smooth muscle (HASM) cells; assay: Thrombin-induced proliferation of human airway smooth muscle (HASM) cells, cell number after 48 h; format: cell-based; conditions: for HASM- Thr pIC25 / HASM- Thr pIC75: two site model, thrombin-induced proliferation; for HASM- Thr pIC25: first phase (inhibition up to 50%); for HASM- Thr pIC75: second phase (inhibition up to 100%)
In short: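 Primary human bronchial smooth muscle cells seeded at 1.5×10^4 cells/cm², serum-starved 24 h, pre-incubated with compound 30 min, then stimulated 48 h with thrombin 0.3 U/ml. Cells counted by haemocytometer with trypan blue; pIC50 as negative log concentration halving proliferative response.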

[2] = system: GM-CSF production by Human Airway Smooth Muscle Cells; assay: Interleukin-1α-mediated GM-CSF production by HASM cells (ELISA); format: cell-based; conditions: inhibition of interleukin-1α (1 ng/ml)-mediated GM-CSF production; concentration not given; * not defined
[3] = target: T1, Estrogen Receptor (ER) (Rattus norvegicus, UniProt P06211); assay: Estrogen receptor binding assay, 3H-estradiol displacement from rat uterine cytosol; conditions: 3H-estradiol displacement, cytosolic preparations of rat uterus; pIC50 of 4.00 = inactive; read-out: ER-RLB pIC50 (converted)
T1 construct: using rat uterine cytosol as a source of ER; from tissue; host or cells: rat uterus, cytosol fraction (30000 x g supernatant)
T1 sequence (P06211 1-600): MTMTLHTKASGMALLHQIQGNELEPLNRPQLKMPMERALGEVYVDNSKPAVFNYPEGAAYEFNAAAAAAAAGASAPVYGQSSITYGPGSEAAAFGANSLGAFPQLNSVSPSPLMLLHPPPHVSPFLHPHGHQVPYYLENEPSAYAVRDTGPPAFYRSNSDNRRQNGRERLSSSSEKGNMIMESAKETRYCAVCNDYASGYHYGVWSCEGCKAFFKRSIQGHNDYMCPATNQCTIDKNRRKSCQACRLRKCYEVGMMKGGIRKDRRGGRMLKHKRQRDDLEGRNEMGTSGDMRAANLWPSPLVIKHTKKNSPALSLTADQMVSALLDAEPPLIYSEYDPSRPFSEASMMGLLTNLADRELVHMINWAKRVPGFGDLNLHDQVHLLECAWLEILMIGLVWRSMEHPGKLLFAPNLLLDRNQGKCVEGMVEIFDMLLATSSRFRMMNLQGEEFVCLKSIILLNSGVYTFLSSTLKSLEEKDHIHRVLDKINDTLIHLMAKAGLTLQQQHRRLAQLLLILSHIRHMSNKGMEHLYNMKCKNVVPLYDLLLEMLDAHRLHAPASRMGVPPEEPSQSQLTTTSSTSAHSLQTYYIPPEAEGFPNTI
In short: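 Cytosol from Brown Norway rat uteri, homogenised in 10 mM Tris pH 7.4 with EDTA, glycerol and PMSF, spun at 30000×g, diluted to about 1 mg/ml protein.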

[4] = system: human breast tumour cell line, MCF7; assay: Proliferation of MCF7 cells in response to 5% FCS or EGF; format: cell-based; conditions: Homo sapiens, MCF7; proliferation in response to 5% FCS; pIC50 of 4.00 = inactive
Experimental: (§1) The effects of 4NO were evaluated in a number of non-smooth muscle cell types including the type II airway epithelial cell line, A549 (ATCC accession number ATCC CCL-185 Lung carcinoma human) (FIG. 2); the human breast tumour cell line, MCF7, (ATTC accession number ATCC HTB-22 breast adenocarcinoma, human) which expresses the estrogen receptor (FIG. 3); and in bovine aortic endothelial cells (BAEC) (FIG. 4).
(§2) The effects of test compounds were examined on proliferation of A549 cells in response to 5% fetal calf serum (FCS). Analogues were pre-incubated with A549 cells for 30 min before the addition of FCS. The incubation continued for 48 h before cell enumeration. Data are expressed as a percentage of the cell number in vehicle treated wells and are presented as the mean and standard error of the mean. Similarly the effects of 2MEO and 4NO on proliferation of MCF7 in response to 5% FCS or epidermal growth factor (EGF, 300 pM) were examined, as were the effects of 2MEO and 4NO on proliferation of BAEC in response to 5% FCS. The incubation parameters were the same as described above and results are presented as the mean and standard error of the mean.
(§3) This assay was also used to evaluate the ability of other compounds to inhibit the proliferation of non-smooth muscle cells MCF7 and A549 (described above) in response to 5% FCS. The results of this assay are presented in Table 4 (columns G and H respectively). The potency of the compounds was considerably less in inhibiting proliferation of these cell lines than it was for HASM. These observations support the contention that there are cell type-specific targets for the actions of these compounds. Such assays may also be adopted to examine the effect of other disclosed compounds on these cells or on other non-smooth muscle cells of interest.

[5] = system: type II airway epithelial cell line, A549; assay: Proliferation of A549 cells in response to 5% FCS; format: cell-based, human; conditions: Homo sapiens, A549; proliferation in response to 5% FCS; pIC50 of 4.00 = inactive; read-out: A549 PIC50 (converted)
Experimental: as §1, §2, §3

[6] = system: Pulmonary fibroblasts; assay: bFGF-induced proliferation of human pulmonary fibroblasts; format: cell-based; conditions: inhibition of bFGF (300 pM)-induced proliferation, mean and SEM, minimum 3 experiments; 1 μM; * not defined
Experimental: Samples of parenchyma from human lung transplant recipients were dissected away from the pleura, chopped into fragments of less than 1 mm^2 and allowed to adhere to plastic culture dishes in a minimal volume of DMEM containing serum (10%) and antibiotics (as used for HASM culture). After the tissue fragments had adhered to the base of the dish additional medium was added. Medium was changed twice weekly until an explant culture formed, at which time the tissue fragments were removed and the cells were passaged in a 1:3 split ratio by exposure to trypsin weekly to produce pulmonary fibroblast cultures.
Pulmonary fibroblasts were cultured in DMEM, serum-deprived for 24 h, in the presence or absence of the test compounds, and then stimulated with 300 pM bFGF for 48 h before harvest and counting of viable cells. An increase pulmonary fibroblast cell number was prevented by 4NOM over the concentration range of 1 to 1000 nM.
A range of the disclosed compounds was subsequently examined using the above assay system, and the results are summarized in Column E of Table 4. […] The proliferation of parenchymal fibroblasts is important in the development of pulmonary fibrosis.

| SMILES | HASM- Thr pIC25 [1] | HASM- Thr pIC75 [1] | HASM - GM-CSF [2] | IC50 [3] | IC50 [4] | IC50 [5] | IC50 ([1]; Homo sapiens, negative log of the concentration that reduces the thrombin-induced proliferative response by 50%, pIC50 of 4.00 = inactive, read-out: HASM-Thr pIC50 (converted)) | pFib - bFGF [6] |
| --- | --- | --- | --- | --- | --- | --- | --- | --- |
| COc1ccc(CON=C2CCC3C4CCc5cc(O)c(OC)cc5C4CCC23C)cc1 (stereo not drawn) [CP-DM-4-34, 2-methoxyestrone-17-(4-methoxybenzyl)oxime] | 4.00 | 4.00 | 29 ± 12 | 40.7 µM | 4.07 µM | 2.14 µM |  |  |
| CO/N=C1\CC[C@H]2[C@@H]3C/C(=N\OCc4cc(F)cc(F)c4)c4cc(O)c(OC)cc4[C@H]3CC[C@]12C [CP-DM-4-74, 6-(3,5difluorobenzyloxy)imino-2-methoxyestrone-17-methyloxime] | 6.59 | 5.34 | 11 ± 8 |  | 10 µM |  | 1.15 µM | 5 ± 9 |
